How the values were obtained:
Assay in all cases: relative viability (nuclei count vs DMSO), 5 days (fraction); higher = more cells survive
[1] = compound: Cc1ccc(C(=O)Nc2ccc(CN3CCN(C)CC3)c(C(F)(F)F)c2)cc1C#Cc1cnc2cccnn12 [Ponatinib]
In short: (§1)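 Viability was read as treated-well nuclei divided by vehicle-well nuclei, using the median across plates. Lung cancer cell lines in 1536-well plates were kept overnight at 37 °C, pinned with five √10-spaced library-drug doses, and after 5 days were Hoechst-stained, imaged at 4× and counted in MetaXpress. Plates passed only with control CV below 25% and at least one doubling.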

[2] = compound: Cc1ccc(Nc2nccc(N(C)c3ccc4c(C)n(C)nc4c3)n2)cc1S(N)(=O)=O [Pazopanib]
In short: as §1

[3] = compound: Cc1ccc(C(=O)Nc2ccc(CN3CCN(C)CC3)c(C(F)(F)F)c2)cc1C#Cc1cnc2cccnn12 [Ponatinib] + CS(=O)(=O)CCNCc1ccc(-c2ccc3ncnc(Nc4ccc(OCc5cccc(F)c5)c(Cl)c4)c3c2)o1 [Lapatinib] (partner 2 µM)
In short: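 Relative viability equals treated-well nuclei counts divided by vehicle-well nuclei counts. Counts came from 4× images of lung cancer cell lines grown in 1536-well plates for 5 days after pin-tool dosing on the day after seeding. Dosing used one drug alone or a fixed anchor-drug dose plus five library-drug doses (not always all listed) in √10 steps, and values are medians of duplicate plates.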

Question: Which results are given for UMC-11?
Answer: relative viability ([1]; 0.002 µM): 0.914; relative viability ([1]; 0.006325 µM): 0.945; relative viability ([1]; 0.06325 µM): 1.07; relative viability ([1]; 0.2 µM): 0.99; relative viability ([2]; 0.01 µM): 0.828; relative viability ([2]; 0.03162 µM): 1.01; relative viability ([2]; 0.1 µM): 1.01; relative viability ([2]; 0.3162 µM): 1.03; relative viability ([2]; 1 µM): 1.11; relative viability ([3]; first compound 0.002 µM): 1; relative viability ([3]; first compound 0.006325 µM): 1.05; relative viability ([3]; first compound 0.06325 µM): 1.17; relative viability ([3]; first compound 0.2 µM): 0.988

Source: the supplement of paper PMC10307832
